System: AML cell lines
Assay: Methylscan proteomic evaluation of arginine methylation
Type: cell-based
Details: AML cell lines treated with the tool compound vs DMSO
Text: FIG. 3: Methylscan evaluation of cell lines treated with Compound D. Percent of proteins with methylation changes (independent of directionality of change) are categorized by functional group as indicated.
To identify putative PRMT1 substrates, a proteomic approach (Methylscan, Cell Signaling Technology) was utilized to identify proteins with changes in arginine methylation states in response to a tool PRMT1 inhibitor, Compound D. Protein fragments from Compound D- and DSMO-treated cell extracts were immunoprecipitated using methyl arginine specific antibodies (ADMA, MMA, SDMA), and peptides were identified by mass spectrometry.

CNCCN(C)Cc1c[nH]nc1[C@H]1CC[C@@]2(CC1)CC(C)(C)CO2 [Compound D]
proteins with changes in arginine methylation states (Methylscan): the majority of substrates identified were transcriptional regulators and RNA processing proteins

From patent publication US20190365710A1, “METHODS OF TREATING CANCER” (GlaxoSmithKline Intellectual Property Development Limited, priority 2016, published 2019)
